In paper PMC6161897, “The novel NADPH oxidase 4 selective inhibitor GLX7013114 counteracts human islet cell death in vitro” (PLoS ONE, 2018):

Tests used:
[1] = tested on: caspase 3; assay: Cleaved caspase 3 immunofluorescence in human islets; assay type: cell-based; settings: palmitate + high glucose 24h, same inhibitor concentrations as Fig 3
[2] = tested on: Nox2; settings: cited from earlier work
[3] = tested on: XO; settings: cited from earlier work
[4] = target: all Nox enzymes; settings: cited from earlier work
[5] = tested on: human islet cells; assay: ROS production in human islets (DCF fluorescence); assay type: cell-based; settings: palmitate 1.5 mM + 20 mM glucose 24h, inhibitor during last 3h: DPI 0.2 μM, Dapsone 10 μM, GLX351322 10 μM, GLX481372 6 μM
[6] = tested on: human islet cells; assay: Human islet cell viability (PI/bisbenzimide ratio); assay type: cell-based; settings: for human islet cell death, cytokines: IL-1β + IFN-γ 20 ng/ml each; for human islet cell death, cytokines / human islet cell death, high glucose + palmitate: 48h, ML171 2 μM, Phox-I2 2 μM, GLX7013114 1 μM; for human islet cell death, high glucose + palmitate: palmitate 1.5 mM + 20 mM glucose
Description: […] Cell viability was measured by staining cells with propidium iodide (20 μg/ml) and bisbenzimide (5 μg/ml) for 20 min at 37°C. The medium was replaced with PBS and the red and blue fluorescence was detected using a Nikon Eclipse fluorescence TE2000-U microscope (Nikon Instruments, Amsterdam, the Netherlands). The ratio of red to blue was taken as a relative measure of cell death (necrosis and late apoptosis) and was quantified using the Image J software (National Institutes of Health).

[7] = target: T1, Nox4 (Homo sapiens, UniProt Q9NPH5); settings: cited from earlier work
T1 construct: host or cells: HEK 293 (CJ, constitutive) and T-REx-293 (tetracycline-inducible)
T1 sequence (Q9NPH5 1-578): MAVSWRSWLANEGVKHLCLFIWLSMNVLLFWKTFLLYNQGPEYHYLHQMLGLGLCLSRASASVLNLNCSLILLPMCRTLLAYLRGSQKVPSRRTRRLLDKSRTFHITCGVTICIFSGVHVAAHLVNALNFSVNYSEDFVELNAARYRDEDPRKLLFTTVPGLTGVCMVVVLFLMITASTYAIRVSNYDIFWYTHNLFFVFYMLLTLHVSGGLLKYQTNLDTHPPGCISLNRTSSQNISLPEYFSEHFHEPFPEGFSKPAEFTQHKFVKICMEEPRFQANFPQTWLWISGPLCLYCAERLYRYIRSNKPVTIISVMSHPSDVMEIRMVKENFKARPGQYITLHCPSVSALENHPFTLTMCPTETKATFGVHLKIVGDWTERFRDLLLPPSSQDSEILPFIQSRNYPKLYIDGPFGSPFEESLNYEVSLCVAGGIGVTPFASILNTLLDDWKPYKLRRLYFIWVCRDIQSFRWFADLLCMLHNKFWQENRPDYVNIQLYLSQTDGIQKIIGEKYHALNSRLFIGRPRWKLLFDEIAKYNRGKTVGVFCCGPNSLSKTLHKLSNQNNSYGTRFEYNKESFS
T1 sequence (P13498 2-195 partner limits assumed): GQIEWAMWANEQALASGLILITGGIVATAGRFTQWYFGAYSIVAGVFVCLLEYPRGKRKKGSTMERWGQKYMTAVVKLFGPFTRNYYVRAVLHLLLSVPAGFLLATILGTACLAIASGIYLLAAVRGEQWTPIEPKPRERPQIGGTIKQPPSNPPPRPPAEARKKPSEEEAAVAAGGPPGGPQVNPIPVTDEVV

[8] = tested on: DUOX1; set-up: method as in PMID 24053146; settings: cited from earlier work
[9] = cited from earlier work
[10] = tested on: human islet; settings: cited from earlier work
[11] = tested on: EndoC-βH1 cells; assay: EndoC-βH1 cell viability (PI, flow cytometry); assay type: cell-based, human; settings: inhibitor 0.2, 0.5 or 1.0 μM; for cell death rates in EndoC-βH1 cells exposed to cytokines: 2-day incubation; for cell death rates in EndoC-βH1 cells exposed to high glucose + palmitate: 24h incubation
Description: […] Cells were then vital stained with 10 μg/ml propidium iodide (PI) for 10 min at 37°C. Free-floating cells and cells attached to the culture dish were washed separately with PBS, pooled and examined by flow cytometry using a FACSCalibur (BD Biosciences, Franklin Lakes, NJ, USA). In each experimental group 10000 cells were examined and gated by PI intensity and FSC signal. The percentage of dead cells was analyzed using […] software (BD Biosciences).

SMILES	activation of caspase 3 in human islets [1]	IC50 [2] [µM]	XO inhibition [3]	human islet cell death, cytokines [6]	human islet cell death, high glucose + palmitate [6]	cell death rates in EndoC-βH1 cells exposed to cytokines [11]	cell death rates in EndoC-βH1 cells exposed to high glucose + palmitate [11]	further results
c1ccc2c(c1)[I+]c1ccccc1-2 [DPI, diphenyleneiodoniumchloride]	reduced activation of caspase 3	[…]	Yes					IC50 values for all Nox enzymes [4]: nM range
Nc1ccc(S(=O)(=O)c2ccc(N)cc2)cc1 [dapsone]	reduced activation of caspase 3							human islet ROS production (DCF/DAPI ratio) [5]: reduced human islet ROS production; human islet cell viability (PI and Bisbenzimide ratio) ([6]; palmitate + high glucose 24h, inhibitor throughout: DPI 0.2 μM, Dapsone 10 μM, GLX351322 10 μM, GLX481372 6 μM): improved viability; inhibition of expression/activity of Nox4 [7]: μM concentrations; inhibition of expression/activity of DUOX1 [8]: μM concentrations
CCOC(=O)c1c(NC(=O)CN2CCN(C(=O)c3ccco3)CC2)sc2c1CCC2 [GLX351322]	reduced activation of caspase 3	40	Inactive					high-fat diet-induced glucose intolerance [9]: amelioration of high-fat diet-induced glucose intolerance; high glucose-induced inhibition of human islet insulin release and survival [10]: protected against high glucose-induced inhibition of human islet insulin release and survival
O=[N+]([O-])c1cccc(C2Nc3ccc([N+](=O)[O-])cc3C3C=CCC32)c1 (stereo not shown) [Phox-I2]		1		failed to protect	partially protected	failed to affect cell death rates	failed to affect cell death rates	
CC(=O)c1ccc2c(c1)Nc1ccccc1S2 [ML171]		[…]		failed to reduce human islet cell death	failed to reduce human islet cell death	failed to affect cell death rates	failed to affect cell death rates	IC50 ([3]; read-out: XO inhibition): 5.5 µM
